Each block holds one compound with its values, some of them ahead of it.
Legend:
[1] = Drug solubility in ternary excipient systems (Example 2); format: physicochemical; conditions: 10% salt, 20% free base by weight
Excerpt: Solvents evaluated included Labrafil M 1944 CS™, Imwitor 742™ oleic acid, Capmul PG-8™, Capmul PG-12™, Lauroglycol 90™ (propylene glycol monolaurate, available from Gattefosse) and Phosal 53 MCT™. Surfactants evaluated included Tween 80™, Cremophor RH40™, Gelucire 44/14™ (polyoxyethylene glyceryl laurate, available from Gattefosse) and Labrasol™.

[2] = Sulfoxide formation, free base vs bis-HCl salt in lipid solution (Example 3); format: physicochemical; conditions: lipid solutions (PE-91, LOT-343) aged at 40°C for up to 3 weeks
Procedure: The solvent system in solution A is Phosal 53 MCT™/ethanol, 9:1 v/v; and in solution B is Labrafil M 1944 CS™/oleic acid/polysorbate 80, 30%/40%/30% by weight. (Labrafil M 1944 CS™ of Gattefossé contains polyoxyethylene glyceryl monooleate.) The three-week study was conducted at 40° C. without nitrogen purging of headspace. […] No antioxidant was included, nor was headspace nitrogen purging performed.

[3] = Sulfoxide formation in various lipid solutions, two-week stress test (Example 4); format: physicochemical; conditions: in Labrafil M 1944 CS and Plurol Oleique CC497; two-week stress test 40°C
[4] = BHA as antioxidant in ternary lipid systems (Example 7); format: physicochemical
Procedure: A full report of this study is found in Example 7 herein.
Testing was done in stress conditions at 40° C. without nitrogen purging.

[5] = Antioxidant testing, two-week stress test (Example 6); format: physicochemical; conditions: for inhibition of oxidative degradation: ABT-263 free base 100 mg/g in LIT-433 vehicle system, at the concentrations tested
[6] = format: physicochemical
Excerpt: Due to poor lipid solubility of NaMTBS, an alternative way of introducing it to the lipid solution is by adding a concentrated aqueous stock solution of NaMTBS to the lipid solution.

[7] = Storage stability of prototype capsules with and without NaMTBS (Example 12); format: physicochemical; conditions: prototype ABT-263 capsules, especially at 40° C. and 75% RH
Excerpt: The only difference between the two batches is presence or absence of antioxidant (sodium metabisulfite). The liquids having the composition shown in Table 16 were encapsulated in size 0 hard gelatin capsules and the capsules placed in blister packaging for a chemical stability study. Water content shown in Table 17 is as determined by analysis, and is not directly related to amount of water added with NaMTBS and edetate calcium disodium as in Table 16.

[8] = C8LL (Capmul PG-8/Labrafil M 1944 CS/Labrasol) 40:40:20
[9] = C12LT (Capmul PG-12/Labrafil M 1944 CS/Tween 80) 30:40:30
[10] = C12LT (Capmul PG-12/Labrafil M 1944 CS/Tween 80) 35:40:25
[11] = C12LT (Capmul PG-12/Labrafil M 1944 CS/Tween 80) 40:30:30
[12] = C12LT (Capmul PG-12/Labrafil M 1944 CS/Tween 80) 45:30:25
[13] = LLC (Lauroglycol 90/Labrafil M 1944 CS/Cremophor RH40) 45:30:25
[14] = LLL (Lauroglycol 90/Labrafil M 1944 CS/Labrasol) 40:40:20
[15] = LLL (Lauroglycol 90/Labrafil M 1944 CS/Labrasol) 50:30:20
[16] = LOC (Labrafil M 1944 CS/oleic acid/Cremophor RH40) 30:60:10
[17] = LOC (Labrafil M 1944 CS/oleic acid/Cremophor RH40) 40:50:10
[18] = LOT (Labrafil M 1944 CS/oleic acid/Tween 80) 30:40:30
[19] = LOT (Labrafil M 1944 CS/oleic acid/Tween 80) 30:45:25
[20] = LOT (Labrafil M 1944 CS/oleic acid/Tween 80) 40:30:30
[21] = LOT (Labrafil M 1944 CS/oleic acid/Tween 80) 40:35:25
[22] = OLL (oleic acid/Labrafil M 1944 CS/Labrasol) 40:40:20
[23] = OLL (oleic acid/Labrafil M 1944 CS/Labrasol) 50:30:20
[24] = OLL (oleic acid/Labrafil M 1944 CS/Labrasol) 50:40:10
[25] = OLL (oleic acid/Labrafil M 1944 CS/Labrasol) 60:30:10

- ABT-263 solubility [1, 8]: ✓
- ABT-263 solubility [1, 9]: ✓
- ABT-263 solubility [1, 10]: ✓
- ABT-263 solubility [1, 11]: ✓
- ABT-263 solubility [1, 12]: ✓
- ABT-263 solubility ([1]; ILC (Imwitor 742/Labrafil M 1944 CS/Cremophor RH40) 40:40:20): ✓
- ABT-263 solubility ([1]; ILC (Imwitor 742/Labrafil M 1944 CS/Cremophor RH40) 50:30:20): ✓
- ABT-263 solubility ([1]; ILC (Imwitor 742/Labrafil M 1944 CS/Cremophor RH40) 50:40:10): ✓
- ABT-263 solubility ([1]; ILC (Imwitor 742/Labrafil M 1944 CS/Cremophor RH40) 60:30:10): ✓
- ABT-263 solubility ([1]; ILL (Imwitor 742/Labrafil M 1944 CS/Labrasol) 40:40:20): ✓
- ABT-263 solubility ([1]; ILL (Imwitor 742/Labrafil M 1944 CS/Labrasol) 50:30:20): ✓
- ABT-263 solubility ([1]; ILL (Imwitor 742/Labrafil M 1944 CS/Labrasol) 50:40:10): ✓
- ABT-263 solubility ([1]; ILL (Imwitor 742/Labrafil M 1944 CS/Labrasol) 60:30:10): ✓
- ABT-263 solubility ([1]; LIT (Labrafil M 1944 CS/Imwitor 742/Tween 80) 30:40:30): ✓
- ABT-263 solubility ([1]; LIT (Labrafil M 1944 CS/Imwitor 742/Tween 80) 30:45:25): ✓
- ABT-263 solubility ([1]; LIT (Labrafil M 1944 CS/Imwitor 742/Tween 80) 40:30:30): ✓
- ABT-263 solubility ([1]; LIT (Labrafil M 1944 CS/Imwitor 742/Tween 80) 40:35:25): ✓
- ABT-263 solubility [1, 13]: ✓
- ABT-263 solubility [1, 14]: ✓
- ABT-263 solubility [1, 15]: ✓
- ABT-263 solubility ([1]; LLL (Lauroglycol 90/Labrafil M 1944 CS/Labrasol) 50:40:10): ✓
- ABT-263 solubility ([1]; LLL (Lauroglycol 90/Labrafil M 1944 CS/Labrasol) 60:30:10): ✓
- ABT-263 solubility [1, 16]: ✓
- ABT-263 solubility [1, 17]: ✓
- ABT-263 solubility [1, 18]: ✓
- ABT-263 solubility [1, 19]: ✓
- ABT-263 solubility [1, 20]: ✓
- ABT-263 solubility [1, 21]: ✓
- ABT-263 solubility [1, 22]: ✓
- ABT-263 solubility [1, 23]: ✓
- ABT-263 solubility [1, 24]: ✓
- ABT-263 solubility [1, 25]: ✓
- color change upon aging [2]: pronounced color darkening
Compound: CC1(C)CCC(c2ccc(Cl)cc2)=C(CN2CCN(c3ccc(C(=O)NS(=O)(=O)c4ccc(N[C@H](CCN5CCOCC5)CSc5ccccc5)c(S(=O)(=O)C(F)(F)F)c4)cc3)CC2)C1.Cl.Cl [ABT-263 bis-HCl salt]

- ABT-263 solubility [1, 8]: ✓
- ABT-263 solubility [1, 9]: ✓
- ABT-263 solubility [1, 10]: ✓
- ABT-263 solubility [1, 11]: ✓
- ABT-263 solubility [1, 12]: ✓
- ABT-263 solubility [1, 13]: ✓
- ABT-263 solubility [1, 14]: ✓
- ABT-263 solubility [1, 15]: ✓
- ABT-263 solubility [1, 16]: ✓
- ABT-263 solubility [1, 17]: ✓
- ABT-263 solubility [1, 18]: ✓
- ABT-263 solubility [1, 19]: ✓
- ABT-263 solubility [1, 20]: ✓
- ABT-263 solubility [1, 21]: ✓
- ABT-263 solubility [1, 22]: ✓
- ABT-263 solubility [1, 23]: ✓
- ABT-263 solubility [1, 24]: ✓
- ABT-263 solubility [1, 25]: ✓
- degradation [3]: significant degradation
Compound: CC1(C)CCC(c2ccc(Cl)cc2)=C(CN2CCN(c3ccc(C(=O)NS(=O)(=O)c4ccc(N[C@H](CCN5CCOCC5)CSc5ccccc5)c(S(=O)(=O)C(F)(F)F)c4)cc3)CC2)C1 [ABT-263]

Compound: COc1ccc(O)c(C(C)(C)C)c1 [BHA, butylated hydroxyanisole]
- effect on sulfoxide formation ([4]; 0.2% by weight BHA in 15% by weight ABT-263 free base in IPT-253, 4-week study at 40°C without nitrogen purging): no effect
- inhibition of sulfoxide formation ([4]; 0.2% w/w BHA, ABT-263 150 mg/g in IPT-253 and LIT-433, 40°C without nitrogen purging): did not provide any inhibition
- inhibition of oxidative degradation [5]: inhibited oxidative degradation to some extent

Compound: Cc1cc(C(C)(C)C)c(O)c(C(C)(C)C)c1 [BHT, butylated hydroxytoluene]
- inhibition of oxidative degradation [5]: inhibited oxidative degradation to some extent

Compound: OCC(O)CS (centres unmarked) [Thioglycerol, thioglycerol]
- inhibition of drug oxidation ([5]; ABT-263 free base 100 mg/g, both vehicle systems (Lipoid S75 MCT, LIT-433)): effective inhibition

Compound: CCCCCCCCCCCCCCCC(=O)OC[C@H](O)[C@H]1OC(=O)C(O)=C1O [ascorbyl palmitate]
- inhibition of oxidative degradation [5]: inhibited oxidative degradation to some extent

- final NaMTBS concentration giving a clear solution [6]: ≤ 9.67 mg/mL
- final NaMTBS concentration at which the lipid solution turned turbid ([6]; 50 mg/ml free base solution in Phosal 53 MCT/ethanol 9:1 v/v, 15% w/v stock solution): ≥ 150 % relative molar concentration
- solubility of neat NaMTBS (solids remained) ([6]; 5 days): < 0.05 % w/w
Compound: O=S([O-])S(=O)(=O)[O-].[Na+].[Na+] [sodium metabisulfite]
- inhibition of formation of total sulfoxides [7]: significantly inhibited
- inhibition of oxidative degradation [5]: inhibited oxidative degradation to some extent

Compound: O=S([O-])([O-])=S.[Na+].[Na+] [sodium thiosulfate]
- inhibition of oxidative degradation [5]: inhibited oxidative degradation to some extent

- inhibition of oxidative degradation [5]: ineffective
Compound: α-tocopherols

Reference: patent publication US8728516B2, “Stabilized lipid formulation of apoptosis promoter” (AbbVie Inc., priority 2009, dated 2014)
